The nature of this data set: activity coefficient (dimensionless); of the first substance listed, at infinite dilution; xn = mol fraction of the nth substance listed. The conditions noted are these: 101 kPa, Liquid, Chromatography, x1 = 0.

Consider 27 compounds from the NIST ThermoML archive (doi:10.1016/j.jct.2015.07.042).

Molecules are shown by their SMILES. Numbers after ± are expanded uncertainties.

Consider `C=CCCCCC` [1-heptene] + CCCCn1cc[n+](C)c1.COP(=O)([O-])OC, for which the activity coefficient reads like this: (358.15 K) 19.6 ± 1.3; (368.15 K) 19.4 ± 1.3; (378.15 K) 19.1 ± 1.3; (388.15 K) 18.9 ± 1.3.

Take `C=CCCCCC` [1-heptene] + CCCCn1cc[n+](C)c1.CS(=O)(=O)[O-]: the activity coefficient reads like this: (358.15 K) 59.2 ± 4.1; (368.15 K) 58.9 ± 4; (378.15 K) 58.7 ± 4; (388.15 K) 58 ± 4.

Regarding `C=CCCCCC` [1-heptene] + CCCCn1cc[n+](C)c1.[Cl-], the activity coefficient (358.15 K) is 88.9 ± 6.1, the activity coefficient (368.15 K) was determined as 83.8 ± 5.7, the activity coefficient (378.15 K) was 79.3 ± 5.4 and the activity coefficient (388.15 K) came to 77.2 ± 5.3.

`C#CCCCCC` [1-heptyne] + CCCCn1cc[n+](C)c1.COP(=O)([O-])OC: the activity coefficient worked out at 4.21 ± 0.29 (358.15 K), 4.48 ± 0.31 (368.15 K), 4.7 ± 0.32 (378.15 K) and 4.93 ± 0.34 (388.15 K).

In the case of `C#CCCCCC` [1-heptyne] + CCCCn1cc[n+](C)c1.CS(=O)(=O)[O-], the activity coefficient (358.15 K) was 12 ± 0.82, the activity coefficient (368.15 K) worked out at 12.6 ± 0.86, the activity coefficient (378.15 K) is 13.3 ± 0.91 and the activity coefficient (388.15 K) is 14.1 ± 0.96.

Consider `C#CCCCCC` [1-heptyne] + CCCCn1cc[n+](C)c1.[Cl-], for which the activity coefficient came to 11.6 ± 0.79 (358.15 K), 12.3 ± 0.84 (368.15 K), 12.7 ± 0.87 (378.15 K) and 13.3 ± 0.91 (388.15 K).

As for `C#CCCCC` [1-hexyne] + CCCCn1cc[n+](C)c1.COP(=O)([O-])OC, the activity coefficient runs as follows: (358.15 K) 3.01 ± 0.2; (368.15 K) 3.22 ± 0.22; (378.15 K) 3.39 ± 0.23; (388.15 K) 3.57 ± 0.24.

For the compound `C#CCCCC` [1-hexyne] + CCCCn1cc[n+](C)c1.CS(=O)(=O)[O-], the activity coefficient is, setting by setting: (358.15 K) 8.02 ± 0.55; (368.15 K) 8.52 ± 0.58; (378.15 K) 9.06 ± 0.62; (388.15 K) 9.64 ± 0.66.

Take `C#CCCCC` [1-hexyne] + CCCCn1cc[n+](C)c1.[Cl-]: the activity coefficient is, setting by setting: (358.15 K) 7.33 ± 0.5; (368.15 K) 7.85 ± 0.54; (378.15 K) 8.19 ± 0.56; (388.15 K) 8.61 ± 0.59.

Consider `CCC[N+](=O)[O-]` [1-nitropropane] + CCCCn1cc[n+](C)c1.COP(=O)([O-])OC, for which the activity coefficient by setting is: (358.15 K) 1.5 ± 0.1; (368.15 K) 1.56 ± 0.1; (378.15 K) 1.62 ± 0.11; (388.15 K) 1.72 ± 0.12.

As to `CCC[N+](=O)[O-]` [1-nitropropane] + CCCCn1cc[n+](C)c1.CS(=O)(=O)[O-], the activity coefficient runs as follows: (358.15 K) 1.89 ± 0.13; (368.15 K) 1.96 ± 0.13; (378.15 K) 2.02 ± 0.14; (388.15 K) 2.13 ± 0.14.

In the case of `CCC[N+](=O)[O-]` [1-nitropropane] + CCCCn1cc[n+](C)c1.[Cl-], the activity coefficient (358.15 K) was determined as 2.51 ± 0.17, the activity coefficient (368.15 K) was found to be 2.61 ± 0.18, the activity coefficient (378.15 K) was 2.69 ± 0.18 and the activity coefficient (388.15 K) was found to be 2.8 ± 0.19.

For the compound `C#CCCCCCC` [1-octyne] + CCCCn1cc[n+](C)c1.COP(=O)([O-])OC, the activity coefficient (358.15 K) was 6.04 ± 0.41, the activity coefficient (368.15 K) stood at 6.22 ± 0.42, the activity coefficient (378.15 K) is 6.48 ± 0.44 and the activity coefficient (388.15 K) is 6.74 ± 0.46.

With `C#CCCCCCC` [1-octyne] + CCCCn1cc[n+](C)c1.CS(=O)(=O)[O-], the activity coefficient runs as follows: (358.15 K) 17.8 ± 1.2; (368.15 K) 18.6 ± 1.3; (378.15 K) 19.5 ± 1.3; (388.15 K) 20.4 ± 1.4.

With `C#CCCCCCC` [1-octyne] + CCCCn1cc[n+](C)c1.[Cl-], the activity coefficient was 18.3 ± 1.2 (358.15 K), 19.2 ± 1.3 (368.15 K), 19.7 ± 1.4 (378.15 K) and 20.4 ± 1.4 (388.15 K).

For `C#CCCC` [1-pentyne] + CCCCn1cc[n+](C)c1.COP(=O)([O-])OC, the activity coefficient was found to be 2.18 ± 0.15 (358.15 K), 2.32 ± 0.16 (368.15 K), 2.46 ± 0.17 (378.15 K) and 2.6 ± 0.18 (388.15 K).

Consider `C#CCCC` [1-pentyne] + CCCCn1cc[n+](C)c1.CS(=O)(=O)[O-], for which the activity coefficient was found to be 5.46 ± 0.37 (358.15 K), 5.84 ± 0.4 (368.15 K), 6.26 ± 0.43 (378.15 K) and 6.67 ± 0.45 (388.15 K).

With `C#CCCC` [1-pentyne] + CCCCn1cc[n+](C)c1.[Cl-], the activity coefficient (358.15 K) came to 4.89 ± 0.33, the activity coefficient (368.15 K) stood at 5.25 ± 0.36, the activity coefficient (378.15 K) turned out to be 5.51 ± 0.38 and the activity coefficient (388.15 K) stood at 5.78 ± 0.39.

`CCOC(C)(C)C` [2-ethoxy-2-methylpropane] + CCCCn1cc[n+](C)c1.COP(=O)([O-])OC: the activity coefficient runs as follows: (358.15 K) 12.8 ± 0.87; (368.15 K) 12.8 ± 0.87; (378.15 K) 12.9 ± 0.88; (388.15 K) 12.9 ± 0.88.

`CCOC(C)(C)C` [2-ethoxy-2-methylpropane] + CCCCn1cc[n+](C)c1.CS(=O)(=O)[O-]: the activity coefficient is 35.3 ± 2.4 (358.15 K), 35.6 ± 2.4 (368.15 K), 36.1 ± 2.5 (378.15 K) and 36.6 ± 2.5 (388.15 K).

As to `CCOC(C)(C)C` [2-ethoxy-2-methylpropane] + CCCCn1cc[n+](C)c1.[Cl-], the activity coefficient (358.15 K) is 64.8 ± 4.4, the activity coefficient (368.15 K) came to 59.3 ± 4.1, the activity coefficient (378.15 K) turned out to be 55.7 ± 3.8 and the activity coefficient (388.15 K) worked out at 53.3 ± 3.6.

`CCC(C)(C)OC` [2-methoxy-2-methylbutane] + CCCCn1cc[n+](C)c1.COP(=O)([O-])OC: the activity coefficient worked out at 9.5 ± 0.65 (358.15 K), 9.61 ± 0.66 (368.15 K), 9.66 ± 0.66 (378.15 K) and 9.75 ± 0.67 (388.15 K).

For the compound `CCC(C)(C)OC` [2-methoxy-2-methylbutane] + CCCCn1cc[n+](C)c1.CS(=O)(=O)[O-], the activity coefficient by setting is: (358.15 K) 23.8 ± 1.6; (368.15 K) 24.2 ± 1.6; (378.15 K) 24.7 ± 1.7; (388.15 K) 25.3 ± 1.7.

Consider `CCC(C)(C)OC` [2-methoxy-2-methylbutane] + CCCCn1cc[n+](C)c1.[Cl-], for which the activity coefficient (358.15 K) is 34 ± 2.3, the activity coefficient (368.15 K) is 33.1 ± 2.3, the activity coefficient (378.15 K) worked out at 32.2 ± 2.2 and the activity coefficient (388.15 K) worked out at 32.1 ± 2.2.

Turning to `COC(C)(C)C` [2-methoxy-2-methylpropane] + CCCCn1cc[n+](C)c1.COP(=O)([O-])OC, the activity coefficient was determined as 7.17 ± 0.49 (358.15 K), 7.35 ± 0.5 (368.15 K), 7.48 ± 0.51 (378.15 K) and 7.66 ± 0.52 (388.15 K).

With `COC(C)(C)C` [2-methoxy-2-methylpropane] + CCCCn1cc[n+](C)c1.CS(=O)(=O)[O-], the activity coefficient is, setting by setting: (358.15 K) 17 ± 1.2; (368.15 K) 17.4 ± 1.2; (378.15 K) 17.9 ± 1.2; (388.15 K) 18.6 ± 1.3.

Take `COC(C)(C)C` [2-methoxy-2-methylpropane] + CCCCn1cc[n+](C)c1.[Cl-]: the activity coefficient by setting is: (358.15 K) 24.6 ± 1.7; (368.15 K) 23.8 ± 1.6; (378.15 K) 23 ± 1.6; (388.15 K) 22.9 ± 1.6.
